This note sets out measurements from US9440966B2, “Compounds for treatment of metabolic syndrome” (SJT MOLECULAR RESEARCH, S.L., priority 2011, dated 2016).

Series [1] deals with SHR hypertensive rats. Briefly: Plasma cholesterol levels test in SHR hypertensive rats. In kind it is in vivo, Male SHR. To be noted: 25 days of treatment (15 mg/Kg) oral, effect more pronounced for 5a and 7a. On the procedure:
(§1) Distinct rat groups were orally treated, once a day, with 5 mg/kg of compounds 4a or 5a or 6a during the first 4 days, 10 mg/kg during the next 4 days and 15 mg/kg until the end of the treatment period or vehicle (control) for the same days. Similarly, another rat group received metformin (MET) (reference drug used for lowering glucose serum levels) in a 300 mg/kg dose, orally, from day 1 to the end of the treatment. Plasma cholesterol levels were measured in triplicate 12 hours after drug administration by the cholesterol oxidase/peroxidase method (BioSystems S.A, Barcelona, Spain). Blood samples were obtained by femoral vein punction. This method was chosen because of its noninvasive character, enabling daily measurements with the same rats throughout the entire treatment.
(§2) Male SHR were provided by Charles River Laboratories (USA). Until the experiments were carried out, the animals have had free access to feed and water. The room temperature was kept at 22±2° C. and the light/dark cycle was of 12 hours. All procedures were submitted to the Animal Experimentation Ethics Committee.
as §1, with “metformin” for “metformin (MET)”, “Blood pressure was” for “Plasma cholesterol levels were”, “4” for “12”, “administration in warmed warmed, restrained, conscious rats” for “administration”, “tail-cuff” for “cholesterol oxidase/peroxidase”, “with a computerized oscillometric system recorder (Nyprem, Cibertec).” for “(BioSystems S.A, Barcelona, Spain). Blood samples were obtained by femoral vein punction.”

A short description of series [2]: Body weight in SHR hypertensive rats. In kind it is in vivo, Male SHR. As to conditions: oral once a day 5, 10 then 15 mg/kg. The method, then: as §2
Distinct rat groups were orally treated, once a day, with 5 mg/kg of compound 5a during the first 4 days, 10 mg/kg during the next 4 days and 15 mg/kg until the end of the treatment period or vehicle (control) for the same days. Similarly, another rat group received metformin (reference drug used for lowering glucose serum levels) in a 300 mg/kg dose, orally, from day 1 to the end of the treatment. Rats were weighted in a CHYO MK2000B precision weight chamber.

The subject of series [3] is Drosophila melanogaster (Oregon-R strain). The series can be described thus: Toxicology study: larva-to-adult viability and development time. To be noted: in vivo. From the text: The purpose of this study was to test and compare the potential toxic effects of compounds 5a, 6a and 7a on the larva-to-adult viability and development time in a Drosophila melanogaster (Oregon-R) flies. These studies have a relevant predictive role with the aim to anticipate possible adverse toxicological effects that may happen during preclinical studies with animal, preferably mammals. In addition, the data provided are highly quantitative.
Drosophila melanogaster (Oregon-R) flies were obtained by the University of the Balearic Islands (Spain). […] The larvae were seeded on standard food supplemented with the appropriate dose of compounds tested. Each compound was tested at 1, 10, 100, 1000 and 2000 μg/ml dissolved in standard food.
Fly adults were transferred from the serial transfer system to bottles with fresh food for 24 h. Adults 5 days old were placed on egg collecting devices (layers) containing a mixture of agar, water, acetic acid, and ethyl alcohol, with a drop of active yeast on it. Every 2 h., the layer glasses were changed, in this way, the eggs of a glass have similar age, with a maximum difference of 2 h. among them. The glasses of the layers were kept at 25° C. for at least 22 h. in Petri dishes until larvae hatched. Fifty larvae were picked with a lancet under a stereoscopic microscope and were seeded into 10×2 cm vials with 5 ml food. Vials were supplemented with 4a, 5a and 7a at 1, 10 and 100 μg/ml. As positive control we used cupric acetate (toxic) at 350 μg/ml.
The number of adult flies which emerged from each vial was counted daily until the exhaustion of the culture. The parameters studied were the larvae-to-adult viability (V) and development time.
Viability is expressed as V=NA/NL, where NL is the input number of larvae ([…] in our case) and NA the output number of adults emerging from these NL larvae. Development time was measured in days by the formula DT=ΣNidi/ΣNi where Ni is the number of flies emerging on the day di after the larvae were placed in the medium.
The data are expressed as the mean±SEM values from 3 independent experiments involving triplicate vials at the number of flies indicated.

The subject of series [4] is female Swiss mice. The series can be described thus: Acute oral toxicology study in a mice model. In kind it is in vivo. As to conditions: oral 2000 mg/kg single dose, observation for 14 days. The method, then:
The experiments were conducted using female Swiss mice (20-30 g), housed under a 12-h light-dark cycle, with controlled humidity (60-80%), and temperature (22±1° C.). Food and water were freely available to the mice.
Female mice (n=6) were orally (2000 mg/kg) administered with a single dose of 4a, 5a, and 7a for the observation of acute signs of toxicity until 14 days. […] The observations comprised the behavior and manifestations of the toxic symptoms, and were carried out according to the Guidelines of the Organization for Economic Cooperation and Development (OECD, 2008).
All compounds were dissolved in sterile saline and were administered by oral gavage to mice based in the weight, for example 20 g received 20 μL.
The data are expressed as mean±S.E.M. of experiments. Statistical significance was determined through one-way analysis of variances (ANOVA), followed by either Newman-Keuls test. A p<0.05 was considered statistically significant. Graphs were drawn and statistical analysis was carried out using GraphPad Prism version 5.00 for Windows (GraphPad Software, San Diego, Calif., USA).

For the compound `COc1ccc(-c2nc(C(=O)NCCCN)cc3c2[nH]c2ccccc23)cc1` [Compound 5a, N(-propylamine)-1-benzosubstituted-β-carboline-3-carboxamide], in series [1], the plasma cholesterol levels entry is given as “inhibition of plasma cholesterol levels”. Besides, the “SHR body weight compared to control untreated rats” value in series [2] is recorded as “statistically significant effect in lowering SHR body weight”. In addition, the “larvae-to-adult viability and development time” value in series [3] is given as “not affected”. For the same compound, the “mortality or behavioral disorders (acute signs of toxicity)” value in series [4] is given as “did not produce mortality or any behavioral disorders”.
